How the values were obtained:
Format in all cases: functional
COLO 205 = assay: Cytotoxicity against human COLO205 cells by SRB assay
HT-29 = assay: Cytotoxicity against human HT29 cells by SRB assay
[1] = Cytotoxicity against human melanoma cells by SRB assay; settings: Melanoma cell
HCT-116 = assay: Cytotoxicity against human HCT116 cells by SRB assay
[2] = Cytotoxicity against human Colon cancer cells by SRB assay; settings: Cancer cell lines
NSCLC = assay: Cytotoxicity against human NSCLC cells by SRB assay
[3] = Cytotoxicity against human ovarian cancer cells by SRB assay; settings: Cancer cell lines
KM12 = assay: Cytotoxicity against human KM12 cells by SRB assay
HCC 2998 = assay: Cytotoxicity against human HCC2998 cells by SRB assay
[4] = Cytotoxicity against human renal cancer cells by SRB assay; settings: Cancer cell lines
HCT-15 = assay: Cytotoxicity against human HCT15 cells by SRB assay
[5] = Cytotoxicity against human CNS cancer cells by SRB assay; settings: Cancer cell lines
SW-620 = assay: Cytotoxicity against human SW620 cells by SRB assay
Leukemia cell = assay: Cytotoxicity against human Leukemia cells by SRB assay

Structure (SMILES)	TGI (COLO 205) [µM]	TGI (HT-29) [µM]	TGI [1] [µM]	TGI (HCT-116) [µM]	TGI [2] [µM]	TGI (NSCLC) [µM]	TGI [3] [µM]	TGI (KM12) [µM]	TGI (HCC 2998) [µM]	TGI [4] [µM]	TGI (HCT-15) [µM]	TGI [5] [µM]	TGI (SW-620) [µM]	TGI (Leukemia cell) [µM]
CC(=O)OC[C@H]1O[C@@H](O[C@@H]2C[C@H]3C(C)(C)[C@H](OC(C)=O)CC[C@]3(C)[C@H]3CC[C@]45C[C@]4(CC[C@H]5[C@@H](C)C[C@@H](O)[C@H](O)C(C)(C)O)[C@@]32C)[C@H](O)[C@@H](O)[C@@H]1O [CUMINGIANOSIDE A]	14	14.3	13.7	13.8	13.9	13.1	13.6	14.2	12.9	13.5	13.9	13.3	14.4	18.5
COC(C)(C)[C@@H](O)[C@H](O)C[C@H](C)[C@@H]1CC[C@]23C[C@]12CC[C@@H]1[C@@]2(C)CC[C@@H](OC(C)=O)C(C)(C)[C@@H]2C[C@@H](O[C@@H]2O[C@H](COC(C)=O)[C@@H](O)[C@H](O)[C@H]2O)[C@]13C [CUMINGIANOSIDE C]	11.3	2.5	12.6	8.7	7.9	12.4	12	7.6	4.9	13.2	6.3	11.6	13.7	11.3
C=C(C)[C@@H](O)[C@H](O)C[C@H](C)[C@@H]1CC[C@]23C[C@]12CC[C@@H]1[C@@]2(C)CC[C@@H](OC(C)=O)C(C)(C)[C@@H]2C[C@@H](O[C@@H]2O[C@H](COC(C)=O)[C@@H](O)[C@H](O)[C@H]2O)[C@]13C [CUMINGIANOSIDE D]	12.6	8.77	12.2	9.27	11	11.7	12.7	11.3	12.4	12.7	10.4	10.9	12	8.2
CC(=O)OC[C@H]1O[C@@H](O[C@@H]2C[C@H]3C(C)(C)[C@H](OC(C)=O)CC[C@]3(C)[C@H]3CC[C@]45C[C@]4(CC[C@H]5[C@@H](C)C[C@@H](O)[C@@H]4OC4(C)C)[C@@]32C)[C@H](O)[C@@H](O)[C@@H]1O [CUMINGIANOSIDE E]	1.8	1.7	15.4	3.5	4.2	14.5	5.9	3.8	2.7	10	6	7.9	10	1.8
